≈ marks a conversion by molar mass, not a printed value.
Columns and labels:
[1] = molecular target: T1, Penicillin-binding protein 2B (Streptococcus pneumoniae serotype 4 (strain ATCC BAA-334 / TIGR4), UniProt P0A3M5); assay: Displacement of Biocillin FL from Streptococcus pneumoniae 1076 PBP2B
T1 sequence (P0A3M5 whole entry): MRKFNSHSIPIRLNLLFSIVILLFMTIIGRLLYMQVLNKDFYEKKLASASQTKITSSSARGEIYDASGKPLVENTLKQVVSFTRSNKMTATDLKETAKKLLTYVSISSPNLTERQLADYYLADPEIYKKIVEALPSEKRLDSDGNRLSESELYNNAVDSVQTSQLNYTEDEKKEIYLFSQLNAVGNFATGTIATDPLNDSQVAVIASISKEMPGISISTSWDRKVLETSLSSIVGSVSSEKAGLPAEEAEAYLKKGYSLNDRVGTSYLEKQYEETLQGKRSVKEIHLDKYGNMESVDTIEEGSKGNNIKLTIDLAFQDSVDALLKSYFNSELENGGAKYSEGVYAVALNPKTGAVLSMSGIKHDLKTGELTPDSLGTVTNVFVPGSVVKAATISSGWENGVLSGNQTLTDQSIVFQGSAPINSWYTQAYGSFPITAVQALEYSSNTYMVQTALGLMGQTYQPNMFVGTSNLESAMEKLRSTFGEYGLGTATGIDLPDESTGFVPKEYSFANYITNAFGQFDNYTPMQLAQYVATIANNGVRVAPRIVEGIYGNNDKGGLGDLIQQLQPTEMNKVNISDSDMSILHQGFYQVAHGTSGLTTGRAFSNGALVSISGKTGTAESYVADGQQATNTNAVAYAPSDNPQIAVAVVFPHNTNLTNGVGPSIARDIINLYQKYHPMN

[2] = molecular target: T1, Penicillin-binding protein 2B; assay: Displacement of Biocillin FL from Streptococcus pneumoniae 3676 PBP2B
[3] = molecular target: T2, Penicillin-binding protein 2x (Streptococcus pneumoniae serotype 4 (strain ATCC BAA-334 / TIGR4), UniProt P14677); assay: Displacement of Biocillin FL from Streptococcus pneumoniae 2527 PBP2X
T2 sequence (P14677 whole entry): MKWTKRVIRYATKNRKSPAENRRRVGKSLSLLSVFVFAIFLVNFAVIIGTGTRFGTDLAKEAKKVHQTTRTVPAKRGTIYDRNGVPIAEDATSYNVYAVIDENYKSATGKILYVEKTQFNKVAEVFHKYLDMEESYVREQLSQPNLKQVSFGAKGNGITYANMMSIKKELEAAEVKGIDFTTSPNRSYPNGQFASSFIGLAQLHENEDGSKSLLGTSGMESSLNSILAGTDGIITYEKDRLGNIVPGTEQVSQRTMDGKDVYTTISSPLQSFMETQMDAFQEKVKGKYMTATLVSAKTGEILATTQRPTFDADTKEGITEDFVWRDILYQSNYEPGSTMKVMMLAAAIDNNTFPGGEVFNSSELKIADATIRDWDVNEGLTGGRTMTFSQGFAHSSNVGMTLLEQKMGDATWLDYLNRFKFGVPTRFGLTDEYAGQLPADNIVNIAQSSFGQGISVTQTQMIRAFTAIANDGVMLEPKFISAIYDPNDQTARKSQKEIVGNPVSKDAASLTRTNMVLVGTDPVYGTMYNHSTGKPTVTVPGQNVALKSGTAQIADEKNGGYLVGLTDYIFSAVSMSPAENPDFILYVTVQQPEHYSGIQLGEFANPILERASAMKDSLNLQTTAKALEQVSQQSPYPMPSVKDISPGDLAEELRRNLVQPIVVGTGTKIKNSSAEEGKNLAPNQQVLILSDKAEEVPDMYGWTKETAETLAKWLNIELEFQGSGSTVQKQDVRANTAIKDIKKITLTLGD

Streptococcus pneumoniae [4] = assay: Antimicrobial activity against Streptococcus pneumoniae 1564 by CLSI method; assay type: functional
[5] = molecular target: T3, Penicillin-binding protein 1A (Streptococcus pneumoniae serotype 4 (strain ATCC BAA-334 / TIGR4), UniProt Q04707); assay: Displacement of Biocillin FL from Streptococcus pneumoniae 1076 PBP1A
T3 sequence (Q04707 whole entry): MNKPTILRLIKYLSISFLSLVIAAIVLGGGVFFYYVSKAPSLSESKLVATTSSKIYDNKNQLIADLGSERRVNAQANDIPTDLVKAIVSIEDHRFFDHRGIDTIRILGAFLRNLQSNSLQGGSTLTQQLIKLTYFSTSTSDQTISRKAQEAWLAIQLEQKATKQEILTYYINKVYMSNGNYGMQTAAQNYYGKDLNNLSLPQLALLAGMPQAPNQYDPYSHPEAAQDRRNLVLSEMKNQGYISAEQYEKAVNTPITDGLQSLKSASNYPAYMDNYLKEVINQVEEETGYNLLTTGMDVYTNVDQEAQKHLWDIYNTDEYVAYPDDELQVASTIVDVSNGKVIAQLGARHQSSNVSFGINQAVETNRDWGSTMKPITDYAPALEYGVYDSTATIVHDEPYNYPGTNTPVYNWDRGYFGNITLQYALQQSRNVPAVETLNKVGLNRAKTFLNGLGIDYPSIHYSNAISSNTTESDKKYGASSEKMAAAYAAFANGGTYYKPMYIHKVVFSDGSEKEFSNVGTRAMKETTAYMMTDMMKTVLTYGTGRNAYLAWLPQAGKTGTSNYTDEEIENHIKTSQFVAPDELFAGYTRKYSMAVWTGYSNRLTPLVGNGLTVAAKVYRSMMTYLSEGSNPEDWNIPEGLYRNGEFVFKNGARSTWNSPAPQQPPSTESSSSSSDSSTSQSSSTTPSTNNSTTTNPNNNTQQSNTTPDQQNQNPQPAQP

[6] = molecular target: T1, Penicillin-binding protein 2B; assay: Displacement of Biocillin FL from Streptococcus pneumoniae 3243 PBP2B
Streptococcus pneumoniae [7] = assay: Antimicrobial activity against penicillin-sensitive Streptococcus pneumoniae 1077 by CLSI method; assay type: functional
[8] = Displacement of Biocillin FL from Streptococcus pneumoniae 3676 PBP3
[9] = molecular target: T3, Penicillin-binding protein 1A; assay: Displacement of Biocillin FL from Streptococcus pneumoniae 3413 PBP1A
[10] = Displacement of Biocillin FL from Streptococcus pneumoniae 3009 PBP2A
[11] = Displacement of Biocillin FL from Streptococcus pneumoniae 2527 PBP3
[12] = Displacement of Biocillin FL from Streptococcus pneumoniae 3665 PBP2A
[13] = Displacement of Biocillin FL from Streptococcus pneumoniae 3676 PBP1B
Streptococcus pneumoniae [14] = assay: Antimicrobial activity against penicillin-sensitive Streptococcus pneumoniae 1076 by CLSI method; assay type: functional
[15] = Displacement of Biocillin FL from Streptococcus pneumoniae 1077 PBP1B
[16] = Displacement of Biocillin FL from Streptococcus pneumoniae 2527 PBP2A
[17] = molecular target: T3, Penicillin-binding protein 1A; assay: Displacement of Biocillin FL from Streptococcus pneumoniae 3676 PBP1A
[18] = molecular target: T1, Penicillin-binding protein 2B; assay: Displacement of Biocillin FL from Streptococcus pneumoniae 3009 PBP2B
[19] = molecular target: T2, Penicillin-binding protein 2x; assay: Displacement of Biocillin FL from Streptococcus pneumoniae 3413 PBP2X
[20] = molecular target: T1, Penicillin-binding protein 2B; assay: Displacement of Biocillin FL from Streptococcus pneumoniae 3413 PBP2B
[21] = molecular target: T2, Penicillin-binding protein 2x; assay: Displacement of Biocillin FL from Streptococcus pneumoniae 3243 PBP2X

SMILES | IC50 [1] [nM] | IC50 [2] [nM] | IC50 [3] [nM] | MIC (Streptococcus pneumoniae [4]) [µg/mL] | IC50 [5] [nM] | IC50 [6] [nM] | MIC (Streptococcus pneumoniae [7]) [µg/mL] | IC50 [8] [µg/mL] | IC50 [9] [nM] | IC50 [10] [µg/mL] | IC50 [11] [µg/mL] | IC50 [12] [µg/mL] | IC50 [13] [µg/mL] | MIC (Streptococcus pneumoniae [14]) [µg/mL] | IC50 [15] [µg/mL] | IC50 [16] [µg/mL] | IC50 [17] [nM] | IC50 [18] [nM] | IC50 [19] [nM] | IC50 [20] [nM] | also measured
CC1(C)S[C@@H]2[C@H](NC(=O)[C@H](N)c3ccc(O)cc3)C(=O)N2[C@H]1C(=O)O [AMOXICILLIN] | 151 | 394 | 10.9 | 4 (≈ 10.9 µM) | 120 | 79.4 | 0.016 (≈ 0.0438 µM) | 0.019 (≈ 0.052 µM) | 339 | 0.08 (≈ 0.219 µM) | 0.022 (≈ 0.0602 µM) | 0.05 (≈ 0.137 µM) | 0.116 (≈ 0.317 µM) | 0.016 (≈ 0.0438 µM) | 0.006 (≈ 0.0164 µM) | 0.051 (≈ 0.14 µM) | 1150 | 137 | 170 | 452 | IC50 [21]: 49.3 nM
CO/N=C(\C(=O)N[C@@H]1C(=O)N2C(C(=O)O)=C(COC(N)=O)CS[C@H]12)c1ccco1 [CEFUROXIME] | 403 | 1110 | 7.07 | 8 (≈ 18.9 µM) | 9.43 | 54.2 | 0.03 (≈ 0.0707 µM) | 0.048 (≈ 0.113 µM) | 2.36 | 0.008 (≈ 0.0189 µM) | 0.038 (≈ 0.0895 µM) | 0.009 (≈ 0.0212 µM) | 0.038 (≈ 0.0895 µM) | 0.03 (≈ 0.0707 µM) | 0.008 (≈ 0.0189 µM) | 0.01 (≈ 0.0236 µM) | 18.9 | 3900 | 9.43 | 1.18 | IC50 [21]: 33 nM
C[C@@H](O)[C@H]1C(=O)N2C(C(=O)O)=C([C@H]3CCCO3)S[C@H]12 [FAROPENEM] | 45.6 | 151 | 116 | 0.03 (≈ 0.105 µM) | 52.6 | 45.6 | 0.03 (≈ 0.105 µM) | 0.009 (≈ 0.0315 µM) | 56.1 | 0.016 (≈ 0.0561 µM) | 0.007 (≈ 0.0245 µM) | 0.015 (≈ 0.0526 µM) | 0.005 (≈ 0.0175 µM) | 0.03 (≈ 0.105 µM) | 0.005 (≈ 0.0175 µM) | 0.025 (≈ 0.0876 µM) | 87.6 | 24.5 | 1520 | 498 | IC50 [21]: 137 nM
C[C@@H](O)[C@H]1C(=O)N2C(C(=O)O)=C(SCCNC=N)C[C@H]12 [IMIPENEM ANHYDROUS] | 237 | 1320 | 60.1 | 0.125 (≈ 0.418 µM) | 301 | 220 | 0.008 (≈ 0.0267 µM) | 0.188 (≈ 0.628 µM) | 2070 | 0.054 (≈ 0.18 µM) | 0.034 (≈ 0.114 µM) | 0.233 (≈ 0.778 µM) | 0.182 (≈ 0.608 µM) | 0.008 (≈ 0.0267 µM) | 0.106 (≈ 0.354 µM) | 0.059 (≈ 0.197 µM) | 838 | 154 | 1430 | 2890 | IC50 [21]: 635 nM
CC1(C)S[C@@H]2[C@H](NC(=O)Cc3ccccc3)C(=O)N2[C@H]1C(=O)O [PENICILLIN G] | 179 | 789 | 26.9 | 16 (≈ 47.8 µM) | 47.8 | 182 | 0.03 (≈ 0.0897 µM) | 0.007 (≈ 0.0209 µM) | 59.8 | 0.011 (≈ 0.0329 µM) | 0.014 (≈ 0.0419 µM) | 0.016 (≈ 0.0478 µM) | 0.021 (≈ 0.0628 µM) | 0.03 (≈ 0.0897 µM) | 0.005 (≈ 0.015 µM) | 0.023 (≈ 0.0688 µM) | 35.9 | 20.9 | 1920 | 532 | IC50 [21]: 20.9 nM

Source: ChEMBL document CHEMBL1649182, “Binding of faropenem and other beta-lactam agents to penicillin-binding proteins of pneumococci with various beta-lactam susceptibilities” (Antimicrob Agents Chemother, 2009)
